The values that follow come from PMC10002963, “[4+2]-Cycloaddition to 5-Methylidene-Hydantoins and 5-Methylidene-2-Thiohydantoins in the Synthesis of Spiro-2-Chalcogenimidazolones” (International Journal of Molecular Sciences, 2023).

The subject of assay [1] is MCF7 cell line. As to the kind of experiment: MTT cytotoxicity assay, MCF7. The format is cell-based, human. As to conditions: MCF7, 65-h treatment, MTT, Cmax 100 µM, read-out: IC50abs. The protocol:
(§1) Some of the obtained spiro-derivatives were tested for cytotoxicity using the standard MTT assay. Cytotoxicity was evaluated using the cell lines of various etiologies: breast cancer MCF7, human lung carcinoma A549, non-cancer human embryonic kidney cell line HEK293T, and non-cancer lung fibroblast VA13 cell line. Lung cancers and breast cancers are among the most common causes of tumor lesions and related death in the world, and non-cancerous cells were applied for the specificity of action evaluation. The results are shown in Table 5; the dose-response dependency graphs are available in Supplementary Information.
(§2) Cell cultures. Human embryonic kidney HEK293T cell line was kindly provided by Dr. E. Knyazhanskaya; immortalized human fibroblasts cell line VA13 was kindly provided by Dr. M. Rubtsova; human breast cancer cell line MCF7 and human lung adenocarcinoma cell line A549 were kindly provided by Dr. S. Dmitriev. MCF7, VA13, A549, and HEK293T cell lines were maintained in DMEM/F-12 (Thermo Fisher Scientific, Waltham, Massachusetts, USA) culture medium containing 10% fetal bovine serum (Thermo Fisher Scientific, Waltham, Massachusetts, USA) and 50 µg/mL penicillin and 0.05 mg/mL streptomycin at 37°C (Thermo Fisher Scientific, Waltham, Massachusetts, USA) in 5% CO2. Cells were maintained at 37°C in a humidified incubator MCO-18AC (Sanyo, Japan) supplied with 5% CO2. Cell cultures were tested for the absence of mycoplasma.
(§3) In Vitro Survival Assay (MTT Assay). The cytotoxicity was tested using the MTT (3-(4,5-dimethylthiazol-2-yl)2,5-diphenyl tetrazolium bromide) assay with some modifications. A total of 2500 cells per well for the MCF7, HEK293T cell lines, 3000 cells for the A549 cell line, or 4000 cells per well for the VA-13 cell line were plated out in 135 µL of DMEM-F12 media (Gibco, USA) in a 96-well plate and then incubated in the 5% CO2 incubator for first 20 h without treating. After this, 15 µL of media-DMSO solutions of tested substances were added to the cells (final DMSO concentrations in the media were 0,5% or less) and treated for65 h with 45 nM–100 µM (eight dilutions) of our substances (triplicate each) and doxorubicin as a control substance. Then the MTT reagent (Paneco LLC, Moscow, Russia) was added to cells up to the final concentration of 0.5 g/L (10 × stock solution in PBS was used), and cells were incubated for 2 h at 37 °C under an atmosphere of 5% CO2. Then the MTT solution was discarded, and 140 µL of DMSO (PharmaMed LLC, Russia) was added. The plates were swayed on a shaker (200 rpm) to dissolve the formazan. The absorbance was measured using a microplate reader (VICTOR ×5 Light Plate Reader, PerkinElmer, USA) at a wavelength of 555 nm (in order to measure formazan concentration). The results were used to construct dose-response graphs and to estimate IC50absvalues (IC50abs is the concentration resulting in a two-fold decrease in the number of cells in comparison with the untreated cells) and, in some cases, IC50 values (IC50 is the concentration resulting in half of the maximal cytotoxic effect) with GraphPadSoftware, Inc., San Diego, CA, USA.

Assay [2] relates to E. coli BW25113 DTC. As to the kind of experiment: Minimal inhibitory concentration, E. coli BW25113 DTC. The class given is cell-based, Escherichia coli. The protocol: (§4) Then the minimal inhibitory concentration (MIC) was measured for E. coli BW25113 DTC and E. coli K-12 (WT) for the 12 most bacteriotoxic compounds from the plate test.
(§5) Determination of Minimal Inhibitory Concentration (MIC). MIC values were determined by monitoring growth in 96-well plates of E. coli cultures exposed to serial dilutions of compounds. Specifically, overnight E. coli BW25113 DTC and K12 cultures were diluted in 96-well plates to an OD590 of 0.01 in LB medium. The wells were then supplemented with the solution of each tested compound at concentrations of 1 mM, 500 µM, 250 µM, 125 µM, 62.5 µM, 31.25 µM, 15.63 µM, 7.81 µM, 3.91 µM, and 1.95 µM. Then the plates were incubated with shaking (200 r.p.m.) overnight at 37°C, and cell growth was assessed by scanning OD590 each well with a VictorX5 reader.

Assay [3] has as its system VA13 cell line. As to the kind of experiment: MTT cytotoxicity assay, VA13. The format is cell-based, human. As to conditions: VA13, 65-h treatment, MTT, Cmax 100 µM. As to the method: as §1, §2, §3
(In general: Formazan colour is commonly taken as a measure of viable cells.)

Assay [4] relates to E. coli K-12 (WT). The assay is described as follows: Minimal inhibitory concentration, E. coli K-12. The class given is cell-based, Escherichia coli. Conditions: LB medium, overnight 37°C, >1000 = inactive in this test. As to the method: as §4, §5
The test system of assay [5] is A549 cell line. As to the kind of experiment: MTT cytotoxicity assay, A549. As to conditions: A549, 65-h treatment, MTT, Cmax 100 µM. The format is cell-based, human. The protocol:
as §1, §2, §3

The subject of assay [6] is HEK293T cell line. The assay is described as follows: MTT cytotoxicity assay, HEK293T. The format is cell-based, human. Conditions: 65-h treatment, Cmax 100 µM, read-out: IC50abs. The protocol:
as §1, §2, §3

Setting [7] is: E. coli BW25113 DTC, LB medium, overnight 37°C, >1000 = inactive in this test.
The mark [8] stands for this setting: Homo sapiens, VA-13, read-out: IC50abs.
The mark [9] stands for this setting: Homo sapiens, read-out: IC50abs.

SMILES strings stand for the structures. Values after ≈ are worked out from the molar mass of the structure shown. Read-outs that look alike come from different tables or passages of the source.

The term MIC denotes the least concentration at which growth counts as inhibited. Regarding `O=C1NC2(CC3C=CC2C3)C(=O)N1c1ccccc1` (stereo not drawn) [Compound 28b], the IC50 in assay [1], in assay [3] (read-out: IC50abs), in assay [5] (read-out: IC50abs) and in assay [6] was > 100 µM each time. The MIC in assay [2] (setting [7]) and in assay [4] was >1000 µM in each case.
Take `O=C1N(c2ccccc2F)C(=S)NC12CC1C=CC2C1` (stereo not drawn) [Compound 35b]: the IC50 in assay [1] was > 100 µM; in assay [3] (read-out: IC50abs) it was > 100 µM; in assay [5] (read-out: IC50abs), > 100 µM; in assay [6] it was 87.4 ± 9.9 µM. Further, the minimum inhibitory concentration (MIC) is 1000 µM (≈ 288 µg/mL) in assay [2] (setting [7]) and >1000 µM in assay [4].
Consider `O=C1NC2(C(=O)N1c1ccccc1)C1C=CC(C1)C2Br` (stereo not drawn) [Compound 40a], for which the IC50 is > 100 µM in assay [1], > 100 µM in assay [3] (read-out: IC50abs), > 100 µM in assay [5] (read-out: IC50abs) and 56.4 ± 2.5 µM in assay [6]. Besides, the values for the MIC in assay [2] (setting [7]) and in assay [4] were 1000 µM (≈ 333 µg/mL) and >1000 µM, respectively.
As for `O=C1NC2(C(=O)N1c1ccccc1)C1C=CC(C1)C2I` (stereo not drawn) [Compound 41a], the IC50 was > 100 µM in assay [1], > 100 µM in assay [3] (read-out: IC50abs), > 100 µM in assay [5] (read-out: IC50abs) and 69.1 ± 4.8 µM in assay [6]. Moreover, the MIC was 1000 µM (≈ 380 µg/mL) in assay [2] (setting [7]) and >1000 µM in assay [4].
With `Cc1cccc(C)c1N1C(=O)C2(CC3C=CC2CC3)NC1=S` (stereo not drawn) [Compound 51a], the IC50 in assay [1] (Homo sapiens) is > 100 µM; in assay [3] (setting [8]) it was > 100 µM; in assay [5] (setting [9]), > 100 µM; in assay [6] (Homo sapiens, HEK-293T) it was > 100 µM. Moreover, the MIC is > 1000 µM in assay [2] (Escherichia coli, BW25113) and > 1000 µM in assay [4] (Escherichia coli).
With `CC1=C(C)CC2(CC1)NC(=S)N(c1ccc(F)c(Cl)c1)C2=O` (stereo not drawn) [Compound 62], the IC50 in assay [1] (Homo sapiens) turned out to be 11.1 ± 0.6 µM; in assay [3] (setting [8]), 9.8 ± 0.4 µM; in assay [5] (setting [9]) it was 7.9 ± 0.4 µM; in assay [6] (Homo sapiens, HEK-293T), 6.8 ± 0.3 µM. Also, the MIC is 1000 µM (≈ 339 µg/mL) in assay [2] (Escherichia coli, BW25113) and > 1000 µM in assay [4] (Escherichia coli).
`CSC1=NC2(CC3C=CC2C3)C(=O)N1c1ccccc1` (stereo not drawn) [Compound 72]: the IC50 in assay [1] (Homo sapiens) was > 100 µM; in assay [3] (setting [8]), > 100 µM; in assay [5] (setting [9]) it was > 100 µM; in assay [6] (Homo sapiens, HEK-293T), 60.1 ± 3.4 µM. The MIC was 500 µM (≈ 142 µg/mL) in assay [2] (Escherichia coli, BW25113) and > 1000 µM in assay [4] (Escherichia coli).
Turning to `O=C1N[C@@]2(C[C@@H]3C=C[C@H]2C3)C(=O)N1c1ccccc1Cl` [Compound 75], the IC50 is > 100 µM in assay [1] (Homo sapiens); > 100 µM in assay [3] (setting [8]); > 100 µM in assay [5] (setting [9]); 99 ± 11.1 µM in assay [6] (Homo sapiens, HEK-293T). The minimal inhibitory concentration (MIC) is 500 µM (≈ 144 µg/mL) in assay [2] (Escherichia coli, BW25113) and > 1000 µM in assay [4] (Escherichia coli).
Turning to `Cc1cccc(N2C(=O)N[C@@]3(C[C@@H]4C=C[C@H]3C4)C2=O)c1` [Compound 76], the IC50 in assay [1] (Homo sapiens) is 86.4 ± 7.3 µM; in assay [3] (Homo sapiens, VA-13, marked **, read-out: IC50abs, calculated by data extrapolation, exceeds Cmax), > 100 µM; in assay [5] (Homo sapiens, marked **, read-out: IC50abs, calculated by data extrapolation, exceeds Cmax), > 100 µM; in assay [6] (Homo sapiens, HEK-293T) it was 48.6 ± 2.4 µM. The MIC in assay [2] (Escherichia coli, BW25113) was 125 µM (≈ 33.5 µg/mL); in assay [4] (Escherichia coli) it was > 1000 µM.
